Where “and” joins values, the source holds several entries; their conditions need not be identical. Equal values may be shown once. Read-outs that look alike come from different tables or passages of the source.
Experiments:
MetRS (T. brucei) = MetRS (T. brucei) (Trypanosoma brucei brucei, UniProt Q38C91); assay: MetRS (T. brucei) ATP depletion assay using Kinase-Glo; type: biochemical
T. brucei = assay: Growth inhibition assay of T. brucei cell cultures (Alamar Blue, 48 h); type: cell-based
[1] = Trypanosoma brucei; read-out: B) T. brucei EC50

MetRS (T. brucei), sequence (Q38C91 entry or part of it): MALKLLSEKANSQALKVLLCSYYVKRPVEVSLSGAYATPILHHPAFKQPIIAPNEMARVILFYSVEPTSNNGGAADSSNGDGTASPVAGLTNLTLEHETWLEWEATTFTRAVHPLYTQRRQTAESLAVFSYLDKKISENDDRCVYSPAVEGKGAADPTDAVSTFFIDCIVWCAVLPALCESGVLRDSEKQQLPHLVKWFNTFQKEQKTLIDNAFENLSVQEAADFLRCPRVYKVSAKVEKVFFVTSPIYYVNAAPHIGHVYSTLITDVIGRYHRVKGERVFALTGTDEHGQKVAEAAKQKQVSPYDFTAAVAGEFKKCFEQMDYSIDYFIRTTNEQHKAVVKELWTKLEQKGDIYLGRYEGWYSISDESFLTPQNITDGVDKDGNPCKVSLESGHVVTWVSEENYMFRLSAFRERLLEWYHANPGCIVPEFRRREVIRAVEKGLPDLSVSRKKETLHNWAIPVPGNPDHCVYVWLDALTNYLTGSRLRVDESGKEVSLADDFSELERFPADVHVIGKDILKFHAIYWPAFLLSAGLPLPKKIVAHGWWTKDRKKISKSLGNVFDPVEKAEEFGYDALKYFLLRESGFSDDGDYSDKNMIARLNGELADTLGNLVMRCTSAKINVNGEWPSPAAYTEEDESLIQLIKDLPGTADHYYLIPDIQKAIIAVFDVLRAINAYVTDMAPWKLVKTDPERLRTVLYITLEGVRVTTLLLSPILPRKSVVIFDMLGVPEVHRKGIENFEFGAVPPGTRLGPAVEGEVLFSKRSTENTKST

Row | Compound | IC50 (MetRS (T. brucei)) | EC50 (T. brucei; [1]) | EC50 (T. brucei; read-out: B) T. brucei EC50)
1 | CC(C)(CNCc1cc(Cl)cc(Cl)c1)CNc1nc2cccnc2[nH]1 [Compound 1641, N1-(3,5-dichlorobenzyl)-N3-(1H-imidazo[4,5-b]pyridin-2-yl)-2,2-dimethylpropane-1,3-diamine] | < 0.049 µM and 0.138 µM | 7.65 µM | 8.35 µM
2 | Fc1ccc2[nH]c(C3CCCC(NCc4cc(Cl)cc(Cl)c4)C3)nc2n1 (centres unmarked) [Compound 1800, N-(3,5-dichlorobenzyl)-3-(5-fluoro-1H-imidazo[4,5-b]pyridin-2-yl) cyclohexanamine] | 0.663 µM | 0.961 µM | –
3 | Clc1cc(Cl)cc(CNCCc2nc3ccc(Cl)nc3[nH]2)c1 [Compound 1780, [2-(5-chloro-3H-imidazo[4,5-b]pyridin-2-yl)-ethyl]-(3,5-dichloro-benzyl)-amine] | 0.067 µM and 0.036 µM | 1.16 µM | 1.06 µM
4 | Clc1cc(Cl)cc(CNC2CCCCN(c3nc4nc(Cl)ccc4[nH]3)C2)c1 (centres unmarked) [Compound 1903, 1-(5-chloro-1H-imidazo[4,5-b]pyridin-2-yl)-N-(3,5-dichlorobenzyl) azepan-3-amine] | 0.682 µM | 1.81 µM | –
5 | O=C(Cc1ccc(Cl)cc1Cl)NCc1nc2ccc(Br)cc2[nH]1 [Compound 1874, N-[(6-bromo-1H-1,3-benzodiazol-2-yl)methyl]-2-(2,4-dichlorophenyl)acetamide] | 0.051 µM | 3.65 µM | –
6 | O=C(Cc1cc(Cl)cc(Cl)c1)NCc1nc2ccc(Cl)cc2[nH]1 [Compound 1851, N-((6-chloro-1H-benzo[d]imidazol-2-yl)methyl)-2-(3,5-dichlorophenyl)acetamide] | 0.081 µM | 3.38 µM | –
7 | O=C(Cc1cc(Cl)cc(Cl)c1)NC1CCCC(c2nc3nc(Cl)ccc3[nH]2)C1 (centres unmarked) [Compound 1786, N-(3-(5-chloro-1H-imidazo[4,5-b]pyridin-2-yl)cyclohexyl)-2-(3,5-dichlorophenyl)acetamide] | 0.31 µM | 5.67 µM | –
8 | COc1c(Br)cc(Br)cc1CN[C@H]1CCCN(c2nc3nc(Cl)ccc3[nH]2)C1 [Compound 1909, (S)-1-(5-chloro-1H-imidazo[4,5-b]pyridin-2-yl)-N-(3,5-dibromo-2-methoxybenzyl)piperidin-3-amine] | 0.02 µM | 0.334 µM | –
9 | Fc1ccc2[nH]c(CCCNCc3cc(Cl)cc(Cl)c3)nc2n1 [Compound 1858, N-(3,5-dichlorobenzyl)-3-(5-fluoro-1H-imidazo[4,5-b]pyridin-2-yl)propan-1-amine] | 0.34 µM | 1.89 µM | –
10 | O=C(CCOc1ccc(Cl)cc1Cl)NCc1nc2ccc(F)cc2[nH]1 [Compound 1740, 3-(2,4-dichlorophenoxy)-N-((6-fluoro-1H-benzo[d]imidazol-2-yl)methyl)propanamide] | 0.549 µM | > 10 µM | –
11 | Clc1ccc(CN2CCC[C@H](c3nc4nc(Cl)ccc4[nH]3)C2)c(Cl)c1 [Compound 1869, (S)-5-chloro-2-(1-(2,4-dichlorobenzyl)piperidin-3-yl)-1H-imidazo[4,5-b]pyridine] | 0.052 µM | 1.7 µM | –
12 | OC1N[C@@H](Cc2ccc(Cl)cc2Cl)C(O)N1Cc1nc2ccccc2[nH]1 (stereo partly drawn) [Compound 1906, (5S)-3-((H-benzo[d]imidazol-2-yl)methyl)-5-(2,4-dichlorobenzyl)imidazolidine-2,4-diol] | 2.94 µM | 6.23 µM | –
13 | O=C(Cc1cc(Cl)cc(Cl)c1)N1CCCC(c2nc3c(Cl)cccc3[nH]2)C1 (centres unmarked) [Compound 1733, 1-(3-(4-chloro-1H-benzo[d]imidazol-2-yl)piperidin-1-yl)-2-(3,5-dichlorophenyl) ethanone] | 0.926 µM | 8.81 µM | –
14 | Clc1cc(Cl)cc(CNC2CCCC(c3nc4ncccc4[nH]3)C2)c1 (centres unmarked) [Compound 1817, N-(3,5-dichlorobenzyl)-3-(1H-imidazo[4,5-b]pyridin-2-yl) cyclohexanamine] | > 10 µM | 2.06 µM | –
15 | O=C(Cc1nc2cc(Cl)cc(Cl)c2[nH]1)NCc1nc2ccccc2[nH]1 [Compound 1764, N-((1H-benzo[d]imidazol-2-yl)methyl)-2-(5,7-dichloro-1H-benzo[d]imidazol-2-yl)acetamide] | > 10 µM | > 20 µM | –
16 | Clc1ccc(CCNCc2nc3nc(Cl)ccc3[nH]2)c(Cl)c1 [Compound 1892, ({5-chloro-3H-imidazo[4,5-b]pyridin-2-yl}methyl)[2-(2,4-dichlorophenyl)ethyl]amine] | 0.033 µM | 1.55 µM | –
17 | O=C(/C=C/Oc1ccc(Cl)cc1Cl)NNc1nc2ccccc2[nH]1 [Compound 1765, (2E)-N′-(1H-1,3-benzodiazol-2-yl)-3-(2,4-dichlorophcnoxy)prop-2-enehydrazide] | > 10 µM | > 20 µM | –
18 | Clc1cc(Cl)cc(CN[C@@H]2CCN(c3nc4ccc(Cl)nc4[nH]3)C2)c1 [Compound 1847, (3R)-1-{5-chloro-3H-imidazo[4,5-b]pyridin-2-yl}-N-[(3,5-dichlorophenyl)methyl]pyrrolidin-3-amine] | 0.696 µM | 9.01 µM | –
19 | Clc1cc(Cl)cc(CN2CCN(c3nc4nc(Cl)ccc4[nH]3)CC2)c1 [Compound 1866, 5-chloro-2-(4-(3,5-dichlorobenzyl)piperazin-1-yl)-1H-imidazo[4,5-b]pyridine] | > 10 µM | > 20 µM | –
20 | CC(Cc1nc2ccc(C(F)(F)F)cc2[nH]1)NCc1cc(Cl)cc(Cl)c1 (centres unmarked) [Compound 1825, [(3,5-dichlorophenyl)methyl]({1-[6-(trifluoromethyl)-1H-1,3-benzodiazol-2-yl]propan-2-yl})amine] | 1.56 µM | 3.65 µM | –
21 | O=C(Cc1ccc(Cl)cc1Cl)N1CCCC(c2nc3ccccc3[nH]2)C1 (centres unmarked) [Compound 1731, 1-(3-(1H-benzo[d]imidazol-2-yl)piperidin-1-yl)-2-(2,4-dichlorophenyl) ethanone] | 5 µM | > 20 µM | –
22 | Clc1cc(Cl)cc(CNCCNc2nc3ncc(Cl)cc3[nH]2)c1 [Compound 1850, [2-({6-chloro-1H-imidazo[4,5-b]pyridin-2-yl}amino)ethyl][(3,5-dichlorophenyl)methyl]amine] | 0.385 µM | 3.87 µM | –
23 | CN(Cc1nc2ccccc2[nH]1)C(=O)CCOc1ccc(Cl)cc1Cl [Compound 1727, N-(1H-1,3-benzodiazol-2-ylmethyl)-3-(2,4-dichlorophenoxy)-N-methylpropanamide] | 5.09 µM | > 20 µM | –
24 | O=C(Cc1ccc(Cl)cc1Cl)NCc1nc2ccc(Cl)cc2[nH]1 [Compound 1852, N-[(6-chloro-1H-1,3-benzodiazol-2-yl)methyl]-2-(2,4-dichlorophenyl)acetamide] | 0.075 µM | 5.54 µM | –
25 | CC(=O)N1CCC(N(C(C)=O)[C@H]2CCCN(c3nc4nc(Cl)ccc4[nH]3)C2)c2cc(Cl)cc(Cl)c21 (some centres unmarked) [Compound 1945] | > 10 µM | 13.7 µM | –
26 | O=C(COc1ccc(Cl)cc1Cl)NCc1nc2ccccc2[nH]1 [Compound 1671, N-(1H-1,3-benzodiazol-2-ylmethyl)-2-(2,4-dichlorophenoxy)acetamide] | 1.27 µM | > 20 µM | –
27 | O=C(NCc1nc2ccccc2[nH]1)N[C@H](CO)Cc1ccc(Cl)cc1Cl [Compound 1935, 1-((1H-benzo[d]imidazol-2-yl)methyl)-3-((S)-3-(2,4-dichlorophenyl)-1-hydroxypropan-2-yl)urea] | > 10 µM | 9.36 µM | –

From patent publication US10913736B2 (UNIVERSITY OF WASHINGTON, priority 2014, dated 2021)
